According to paper PMC7710018, “Restoration of motor learning in a mouse model of Rett syndrome following long-term treatment with a novel small-molecule activator of TrkB” (Disease Models & Mechanisms, 2020):
“Also recorded” adds a separate entry of the source.

How the values were obtained:
Het mice = system: Het mice; design: method as in Li et al., 2017; conditions: long-term treatment of Het mice; ref Li et al., 2017; cited from earlier work
[1] = system: heterozygous (Het) female Mecp2 mutant mice; assay: Foot slip; assay type: in vivo, mouse; conditions: chronic treatment, 24 h after last treatment (data not shown)
Experimental: Small-molecule compounds were diluted in saline and delivered by i.p. injection. To define the acute effects of single drug treatments, behavioral testing was initiated 1 h after dosing. Durable effects of single drug treatments were evaluated 24 h after dosing. To define the effects of repeated dosing, mice were treated once every 3 days (q72 h) for 4 or 8 weeks, and behavioral testing was performed 24 h after the last dose.
Foot slip was used to assess locomotor coordination and spontaneous movement on a challenging substrate. Animals were placed on an elevated wire mesh surface (50 cm^2) with 1 cm^2 openings and allowed to freely explore for 5 min ([Starkey et al., 2005]). Total distance traveled was measured by a computer-operated animal activity system (ANY-maze, Stoelting). The total number of forepaw and hindpaw slips, where the foot came completely through the grate with no toes remaining on the grid, was manually counted, and the number of slips/cm traveled was calculated.
Figure S3. Single administration of PTX-BD4-3 reduces foot slip errors in Het mice. Mice received a single injection of PTX-BD4-3 (P.1, P.5, P.50) one hour prior to the beginning of foot slip testing. n = 10-23 animals derived from 3 […]
***p<0.001 compared to saline-treated Wt mice (V, black bar), †p<0.05 compared to saline-treated Het mice (V, grey bar); One-Way ANOVA with LSD post-hoc analysis. […]

[2] = system: heterozygous (Het) female Mecp2 mutant mice; assay: Forelimb grip strength; assay type: in vivo, mouse; conditions: chronic intermittent 5 mg/kg q72 h
Experimental: This improvement is consistent with previous reports of motor learning in response to repeated exposure to Rotarod testing ([Buitrago et al., 2004]). […] To investigate this possibility, we evaluated Rotarod performance in additional cohorts of animals that received chronic intermittent dosing with PTX-BD4-3 and only one exposure to Rotarod testing, at the end of the 8-week treatment period (Fig. 7A).
Fig. 7. […] (A) Repeated dosing with PTX-BD4-3 (5 mg/kg, q72 h) for 8 weeks had no impact on latency to fall in animals that were tested only at the end of the 8-week treatment period. Rotarod performance was measured over three successive trials, 24 h after the last dose. n=15-16 subjects derived from two independent experiments. (B) Het mice show no deficit in forelimb grip strength compared to Wt controls, and no increase in grip strength in response to treatment with PTX-BD4-3. n=9-20 subjects derived from two independent experiments. *P<0.05, **P<0.001 compared to saline-treated Wt mice. One-way ANOVA with LSD post hoc analysis. Black, saline-treated Wt mice; gray, saline-treated Het mice; red, PTX-BD4-3-treated Het mice.

[3] = system: 55 pharmacologically relevant receptors; assay: Cerep ExpresSProfile screen, whole panel; conditions: 10 μM; inhibition of binding greater than 50% = significant binding
From the text: To further define the specificity of PTX-BD4-3 for TrkB, we screened 55 pharmacologically relevant receptors, including neurotransmitter and G-protein coupled receptors for PTX-BD4-3 binding (Table S1). […] Thus, as with LM22A-4 ([Massa et al., 2010]), the specificity of PTX-BD4-3 for TrkB is supported by multiple lines of evidence, including receptor binding, receptor activation, receptor adaptor recruitment and cell survival assays.
To evaluate the relative binding specificity of LM22A-4 ([Massa et al., 2010]) and PTX-BD4-3, binding to a broad range of 55 pharmacologically relevant receptors, including numerous neurotransmitter and G-protein coupled receptors was assessed using standard radioligand competition binding assays (ExpressSProfile) performed by Cerep, Inc. (Seattle, WA, USA). In addition, ADME-Tox analysis was performed by Cerep, Inc. All experimental conditions are described on the Cerep website (www.cerep.fr). […]
48 Ca2+ channel (L, verapamil site) 0 ‐1.3 ‐0.7
(phenylalkylamine) (antagonist radioligand) […]
51 Na+ channel (site 2) (antagonist radioligand) 0.6 11.7 6.1
52 Cl‐ channel (GABA‐gated) (antagonist 2.7 ‐5.3 ‐1.3 […]
Table S1. In vitro binding assays. […]
(Eurofins Panlabs, MO). The results are expressed as percent inhibition of control specific binding obtained in the presence of 10 micromolar PTX-BD4-3. […]

[4] = Body weight / tolerability on chronic intermittent dosing; assay type: in vivo; conditions: 8 weeks
From the text: In light of evidence that deficits in BDNF expression and TrkB signaling contribute to neurological dysfunction in mouse models of RTT ([Katz, 2014]), we next examined whether or not chronic treatment of Mecp2 mutant mice with PTX-BD4-3 would ameliorate disease phenotypes. For these studies, we used heterozygous (Het) female Mecp2 mutants, which, unlike male null mice, model the somatic mosaicism for normal and mutant MeCP2 that characterizes the human disease ([Katz et al., 2012]). Animals were treated once every 3 days (5 mg/kg, i.p.), beginning at 16 weeks of age, and neurological phenotypes were assessed at various time points up to 8 weeks of dosing. All tests were performed 24 h after the last treatment. Phenotypic assessments included whole-body plethysmography to quantify apneic breathing, a core feature of respiratory dysfunction in RTT, as well as a motor test battery.
Figure S2. Repeated dosing with PTX-BD4-3 (5 mg/kg, q72 hrs) had no
effect on body weight in either Wt or Het mice.
Initial Week 2 Week 4 Week 6 Week 8
Body weight (g) Wt Saline Wt BD4‐3
Disease Models & Mechanisms: doi:10.1242/dmm.044685: Supplementary information
Disease Models & Mechanisms • Supplementary information […]

SMILES | behavioral learning in a spatial memory task (Het mice) | foot slip errors [1] | forelimb grip strength [2] | binding within the panel of 55 receptors [3] | tolerability of chronic intermittent dosing ([4]; 5 mg/kg i.p. q72 h) | body weight ([4]; Het mice, 5 mg/kg q72 h, vs saline-treated Het littermates)
O=C(NCCO)c1cc(C(=O)NCCO)cc(C(=O)NCCO)c1 [LM22A-4, N,N′,N′′-tris(2-hydroxyethyl)-1,3,5-benzenetricarboxamide, reference compound] | improves behavioral learning |  |  |  |  | 
COCCN(C)C(=O)c1cc(C(=O)N(C)CCOC)cc(C(=O)N(C)CCOC)c1 [PTX-BD4-3, benzene-1,3,5-tricarboxylic acid tris-[(2-methoxy-ethyl)-methyl-amide]] |  | no reduction | no gain in grip strength | negative; also recorded: no significant binding | well tolerated | unchanged
